For experiment [1], the target named is T1, progestogen receptor (PRa) (Homo sapiens, UniProt P06401).
T1 sequence (P06401 1-769 isoform P06401-2): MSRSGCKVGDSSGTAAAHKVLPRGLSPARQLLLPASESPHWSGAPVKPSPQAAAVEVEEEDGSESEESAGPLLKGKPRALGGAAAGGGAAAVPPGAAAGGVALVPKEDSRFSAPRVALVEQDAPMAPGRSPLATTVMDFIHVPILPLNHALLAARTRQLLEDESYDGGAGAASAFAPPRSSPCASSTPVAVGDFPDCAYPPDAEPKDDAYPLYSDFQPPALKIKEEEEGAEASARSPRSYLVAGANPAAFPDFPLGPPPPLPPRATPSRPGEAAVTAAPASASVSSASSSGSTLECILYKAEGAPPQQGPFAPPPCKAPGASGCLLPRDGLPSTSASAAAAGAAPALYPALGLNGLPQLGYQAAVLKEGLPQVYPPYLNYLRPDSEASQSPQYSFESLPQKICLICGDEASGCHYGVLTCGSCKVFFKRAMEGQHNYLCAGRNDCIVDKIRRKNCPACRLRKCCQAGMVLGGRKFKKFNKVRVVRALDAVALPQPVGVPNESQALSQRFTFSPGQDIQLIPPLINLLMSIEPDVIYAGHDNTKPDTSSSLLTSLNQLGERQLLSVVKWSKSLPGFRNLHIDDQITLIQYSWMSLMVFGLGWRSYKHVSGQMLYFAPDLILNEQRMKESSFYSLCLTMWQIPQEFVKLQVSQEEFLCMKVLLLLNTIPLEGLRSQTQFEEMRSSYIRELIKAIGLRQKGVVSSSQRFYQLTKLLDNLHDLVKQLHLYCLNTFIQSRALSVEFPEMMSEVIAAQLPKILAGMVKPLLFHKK
In words: Binding activity on human nuclear receptor PR. The following applies: mean ± SD, n = 4. The protocol: (§1) Buffer solution is composed of 25 mM NaPO4, 20 mM NaMoO4, 10 mM KF and 10% glycerol (pH=7.3) and stored under 4° C. Stock solution is prepared with CHAPS and DTT and stored under −20° C. […] Add 2.5 μl/hole into 96-pore plate. Take out appropriate amount of buffer solution reserve into solution to make the final concentration of CHAPS and DDT to become 0.25 mM and 2 mM respectively. Add protease inhibitors (aprotinin and leupeptin) to make its final concentration to become 1 μg/μl, and place in an ice bath. After adding human nuclear receptor GR (1:8), PR (1:100), ER (1:2000), AR (1:200) and MR (1:40) into the reaction system respectively, adequately mix suitable quantity of [^3H]-dexamethasone, [^3H]-progesterone, [^3H]-estradiol and [^3H]-DHT (from Amersham), rapidly add into 96-pore plate (100 μl/pore) and incubate overnight under 4° C. On the next day, add 25 μl of hydroxyapatite suspension into each pore and mix with shaking. After incubating for 10 min, separate by centrifuge for 3 min at 2500 rpm. The precipitate is washed with 100 μl of buffer solution and separated by centrifuge twice. Add 150 μl of scintillation solution (from Perkin Elmer) into each pore, mix with shaking and count by MicroBeta counter.

Another experiment has as its target T2, androgen receptor (AR) (Homo sapiens, UniProt P10275).
T2 sequence (P10275 1-920): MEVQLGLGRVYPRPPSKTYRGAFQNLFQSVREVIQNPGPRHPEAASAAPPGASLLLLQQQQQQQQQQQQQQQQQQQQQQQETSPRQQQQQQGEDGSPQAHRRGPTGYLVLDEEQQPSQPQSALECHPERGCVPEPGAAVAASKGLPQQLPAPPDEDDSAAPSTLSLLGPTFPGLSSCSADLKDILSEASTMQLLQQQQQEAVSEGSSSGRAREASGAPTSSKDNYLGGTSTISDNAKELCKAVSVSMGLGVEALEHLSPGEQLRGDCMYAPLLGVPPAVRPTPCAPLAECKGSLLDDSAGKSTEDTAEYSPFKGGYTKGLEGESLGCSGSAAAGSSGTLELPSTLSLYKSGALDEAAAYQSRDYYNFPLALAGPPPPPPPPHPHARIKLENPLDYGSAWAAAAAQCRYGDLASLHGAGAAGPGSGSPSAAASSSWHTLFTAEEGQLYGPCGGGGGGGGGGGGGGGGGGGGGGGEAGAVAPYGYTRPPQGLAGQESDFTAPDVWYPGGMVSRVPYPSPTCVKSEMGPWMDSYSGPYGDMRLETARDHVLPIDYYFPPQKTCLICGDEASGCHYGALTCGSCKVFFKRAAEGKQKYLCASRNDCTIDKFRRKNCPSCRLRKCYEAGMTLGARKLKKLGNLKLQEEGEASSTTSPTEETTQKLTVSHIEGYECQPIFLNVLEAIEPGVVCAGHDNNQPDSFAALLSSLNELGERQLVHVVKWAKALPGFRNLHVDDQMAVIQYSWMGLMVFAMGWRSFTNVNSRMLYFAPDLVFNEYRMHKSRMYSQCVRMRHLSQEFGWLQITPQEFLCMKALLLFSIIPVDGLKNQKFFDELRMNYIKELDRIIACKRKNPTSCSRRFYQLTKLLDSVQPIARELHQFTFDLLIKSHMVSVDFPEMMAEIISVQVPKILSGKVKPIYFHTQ
In words: Binding activity on human nuclear receptor AR. The following applies: mean ± SD, n = 4. The method, then:
as §1

Another experiment has as its system HIV-1 IIIB P24 antigen. In words: microbe, parasite or virus in culture. Type of experiment: cell-based. The following applies: for Selection index (SI): MT-4. The protocol: (1) Inoculate MT4 cells into 96-pore cell culture plate, 1×10^5 cells/ml, infect with HIV-1-IIIB virus strain of about 100TCID50, and add cymipristone solution at the same time, its concentration is below 100 μg/ml, triply diluted to 8 concentrations. Set virus TCID50 determination group and cell control group. Each concentration is duplicated in two pore. Incubate under 37° C., 5% CO2 and saturated humidity in an incubator.
Daily observe the cytopathy in above culture plate by microscope, record the degree of cytopathy with routine method, and calculate the 50% toxic concentration (TC50) and maximum nontoxic concentration (TC0) of drug according to Reed & Muench method. (3) Determination on HIV-1 P24 Antigen with Supernatant Liquid Pipetted from Cell Culture Plate Added Drug After 4 days (96 hours), pipette out the supernatant liquid from cell culture added drug and freeze HIV-1 P24 antigen used for determination.
Take the supernatant liquid on the fourth day, combine the liquid from two pore, and dilute by 1:100, Determine the HIV-1 P24 antigen titer (OD value) by ELISA method according to the instruction of HIV-1 P24 antigen reagent kit. […] At the same time, determine the 50% infection concentration of HIV-1/IIIB virus strain in MT-4 cells and virus infection quantity (TCID50).
(1) Calculation of TC50, IC50 and SI of Drug in Cell Culture According to Reed & Muench Method

Where [2] appears, read: Human immunodeficiency virus 1, IIIB, MT4, read-out: Inhibition rate on HIV-1 P24 antigen.

Values joined by “and” are separate entries in the source; they are usually repeats but may differ in a detail not shown here. Equal entries are not always repeated.

In experiment [1], `CC#C[C@]1(O)CC[C@H]2[C@@H]3CCC4=CC(=O)CCC4=C3[C@@H](c3ccc(N(C)C4CCCCC4)cc3)C[C@@]21C` [Cymipristone, 11β-[4-(N-methyl-N-cyclohexylamino)phenyl]-17α-(1-propynyl)-17β-hydroxyl-4,9-estradiene-3-one] registered an IC50 of 5.2 ± 0.26 nM. The compound further registered an IC50 at androgen receptor (AR) of 69.6 ± 15.4 nM. Also, in the experiment with HIV-1 IIIB P24 antigen (Human immunodeficiency virus 1, IIIB, MT4, read-out: IC50 on HIV-1 IIIB P24 antigen), the 50% inhibitory concentration (IC50) is 1.3 µg/mL and 2.62 µM. Besides, in the experiment on HIV-1 IIIB P24 antigen (setting [2]), the inhibition at 0.05 µg/mL stood at 14%, the inhibition at 0.14 µg/mL came out at 17%, the inhibition at 0.41 µg/mL was 13% and the inhibition at 1.23 µg/mL is 29%. The inhibition at 3.7 µg/mL with HIV-1 IIIB P24 antigen (setting [2]) was found to be 93%. For the same compound, in the experiment on HIV-1 IIIB P24 antigen (SI=TC50/IC50, CPE cytotoxicity), the “Selection index (SI)” value came to 5.93. For the same compound, the “Selection index (SI)” value in the experiment on HIV-1 IIIB P24 antigen (SI=TC50/IC50, MTT cytotoxicity) was 23.28. Besides, the “Effect on HIV-1 P24 antigen formation in MT-4 cell culture (in words)” value in the experiment on HIV-1 IIIB P24 antigen (conclusion) is “significant inhibitory effect”.

One may read the IC50 as the concentration needed to halve the response being measured. The inhibition is the change of the read-out against control, counted positive when it falls.
